Experimental findings from ChEMBL document CHEMBL1201862, “PubChem BioAssay data set” (2004) are described below.

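Following 48 hours of exposure in 96-well plates, responses at five concentrations were used to interpolate endpoints linearly. GI50 marks 50% less growth.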 Active and inactive are the calls of the source. No stated cut-off is given here; in the data, active = GI50 up to about 1.1 µM and inactive = higher.

Test in all cases: DTP human tumour cell line panel, 48 h
Experiment [1] has as its system EKVX.
Experiment [2] deals with HCT-15.
In experiment [3] the test system is HT-29.
Experiment [4] relates to IGROV-1.
Experiment [5] deals with K562.
For experiment [6], the system named is Malme-3M.
Experiment [7] relates to NCI-H226.
The test system of experiment [8] is NCI-H460.
The test system of experiment [9] is NCI/ADR-RES.
For experiment [10], the system named is OVCAR-4.
The subject of experiment [11] is RPMI-8226.
The test system of experiment [12] is SF-295.
The test system of experiment [13] is SF-539.
Experiment [14] deals with SK-MEL-2.
Experiment [15] concerns SK-MEL-5.
Experiment [16] deals with SK-OV-3.
The subject of experiment [17] is SNB-19.
The test system of experiment [18] is U-251.
Experiment [19] relates to UACC-257.
The test system of experiment [20] is HOP-92.

A word on the GI50: it is the concentration giving 50% growth inhibition. On to `O=C(O)Cc1ccc([N+](=O)[O-])cc1[N+](=O)[O-]`, for which the GI50 in [1] was > 100 µM (inactive); in [2] it was more than 100 µM; in experiment [3], > 100 µM (inactive); in [4] it was > 100 µM (inactive); in experiment [5] it was > 100 µM (inactive); in [6], > 100 µM (inactive). The GI50 in [7], in experiment [8], in [9], in experiment [10], in [11] and in experiment [12] was > 100 µM (inactive) in each case. Also, the GI50 in experiment [13], in experiment [14], in experiment [15], in experiment [16], in experiment [17] and in experiment [18] was > 100 µM (inactive) throughout. The GI50 in [19] was > 100 µM (inactive).

For the compound `COc1cccc(CCNC(=O)Cc2ccccc2CCO)c1`, the GI50 was > 100 µM (inactive) in [1]; more than 100 µM in [2]; > 100 µM (inactive) in [20]; > 100 µM (inactive) in experiment [3]; > 100 µM (inactive) in [4]; > 100 µM (inactive) in experiment [5]. For the same compound, the GI50 in experiment [7] is > 100 µM (inactive); in experiment [8], > 100 µM (inactive); in [9], > 100 µM (inactive); in experiment [10] it was > 100 µM (inactive); in experiment [11], > 10 µM (inactive); in experiment [12], > 100 µM (inactive). Further, the GI50 in experiment [13], in experiment [14], in experiment [15], in experiment [16], in [17] and in experiment [18] was > 100 µM (inactive) in each case. The GI50 in experiment [19] was > 100 µM (inactive).

With `COc1c(Sc2c(SCSc3cnc4ccccc4c3Sc3cnc4ccccc4c3OC)cnc3ccccc23)cnc2ccccc12`, the GI50 in experiment [1] was 35.7 µM (inactive); in [2], 84.5 µM; in [20], 13.2 µM (inactive); in [3], 78.7 µM (inactive); in experiment [4], 8.13 µM (inactive); in experiment [8], 98.2 µM (inactive). The GI50 in experiment [9] is 42.5 µM (inactive); in [10] it was 37.2 µM (inactive); in experiment [11], 9.2 µM (inactive); in [12] it was > 100 µM (inactive); in [13], > 100 µM (inactive); in experiment [14], > 100 µM (inactive). Also, the GI50 in experiment [15] was 24.8 µM (inactive); in experiment [17], 22.4 µM (inactive); in experiment [18], 30.1 µM (inactive); in [19] it was > 100 µM (inactive).

Consider `CN(Cc1cccc2ccsc12)/N=C\c1ccc(Cl)cc1`, for which the GI50 is 50.4 µM (inactive) in [1]; 34.7 µM in experiment [2]; > 100 µM (inactive) in [20]; 26.7 µM (inactive) in experiment [3]; > 100 µM (inactive) in experiment [4]; 40.6 µM (inactive) in [5]. Moreover, the GI50 is > 100 µM (inactive) in [6]; 89.9 µM (inactive) in experiment [7]; > 100 µM (inactive) in [8]; > 100 µM (inactive) in experiment [9]; 46.1 µM (inactive) in [10]; 30.9 µM (inactive) in experiment [12]. Besides, the GI50 is 15.5 µM (inactive) in experiment [15]; > 100 µM (inactive) in [16]; > 100 µM (inactive) in [17]; > 100 µM (inactive) in experiment [18]; 18.8 µM (inactive) in experiment [19].

`CNC(=O)C1(C#N)C(c2ccccc2)C(C#N)(C(=O)NC)C1c1ccccc1` (stereo unspecified): the GI50 is > 100 µM (inactive) in experiment [1]; more than 100 µM in experiment [2]; > 100 µM (inactive) in experiment [20]; > 100 µM (inactive) in experiment [3]; > 100 µM (inactive) in [4]; 24.4 µM (inactive) in experiment [5]. Also, the GI50 was 98.9 µM (inactive) in experiment [7]; > 100 µM (inactive) in experiment [8]; > 100 µM (inactive) in [9]; > 100 µM (inactive) in [10]; 87.1 µM (inactive) in experiment [11]; > 100 µM (inactive) in [12]. Also, the GI50 in experiment [13] is > 100 µM (inactive); in experiment [14], > 100 µM (inactive); in experiment [15] it was > 100 µM (inactive); in experiment [16] it was > 100 µM (inactive); in experiment [17], 27.4 µM (inactive); in experiment [18] it was > 100 µM (inactive).

For the compound `Cc1cc(OCc2nnc3n2S(=O)(=O)c2ccccc2N3C)ccc1Cl`, the GI50 is 33.1 µM (inactive) in experiment [1]; more than 100 µM in experiment [2]; 16.1 µM (inactive) in experiment [20]; 52 µM (inactive) in [3]; 22.9 µM (inactive) in experiment [4]; 68.7 µM (inactive) in experiment [5]. Moreover, the GI50 is 31.2 µM (inactive) in experiment [7]; 39.9 µM (inactive) in experiment [8]; 35.7 µM (inactive) in [9]; 8 µM (inactive) in experiment [10]; 18.8 µM (inactive) in experiment [12]; 16.7 µM (inactive) in experiment [13]. Moreover, the GI50 in experiment [14] was > 100 µM (inactive); in experiment [15] it was 38.7 µM (inactive); in experiment [16], 10.4 µM (inactive); in [17], 19.3 µM (inactive); in experiment [18], 18.6 µM (inactive); in [19], 61 µM (inactive).

`CCCC(CCN)(CCN)[N+](=O)[O-]`: the GI50 in experiment [1] was > 100 µM (inactive); in experiment [2], more than 100 µM; in experiment [3] it was > 100 µM (inactive); in experiment [4], > 100 µM (inactive); in experiment [5], > 100 µM (inactive); in experiment [6], > 100 µM (inactive). For the same compound, the GI50 in experiment [7], in [8], in experiment [9], in experiment [10], in experiment [11] and in experiment [12] was > 100 µM (inactive) in each case. In addition, the GI50 in experiment [13], in experiment [14], in [15], in experiment [16], in experiment [17] and in experiment [18] was > 100 µM (inactive) each time. In experiment [19], the GI50 is > 100 µM (inactive).

As for `COc1ccc(C(=O)/C=C/c2ccc(OCC(=O)O)cc2)cc1`, the GI50 in [1] was > 100 µM (inactive); in experiment [2], more than 100 µM; in experiment [20] it was 31.5 µM (inactive); in [3] it was > 100 µM (inactive); in experiment [4], > 100 µM (inactive); in experiment [5] it was 39.4 µM (inactive). Further, the GI50 in experiment [6] was 50.7 µM (inactive); in experiment [9] it was 83.4 µM (inactive); in [11], > 100 µM (inactive); in experiment [12], > 100 µM (inactive); in [13], 46.6 µM (inactive); in [14] it was 44.5 µM (inactive). The GI50 in experiment [15] was > 100 µM (inactive); in [17], 98.6 µM (inactive); in experiment [18] it was 27.7 µM (inactive).

Take `Cc1cccc(NC(=O)CC(=O)N2N=C(N3c4ccccc4Sc4ccccc43)CC2c2ccccc2)c1` (stereo unspecified): the GI50 in experiment [1] was > 100 µM (inactive); in [2], more than 100 µM; in experiment [20], > 100 µM (inactive); in [3] it was > 100 µM (inactive); in [4], > 100 µM (inactive); in experiment [5] it was > 100 µM (inactive). For the same compound, the GI50 in experiment [7], in experiment [8], in experiment [9], in [10], in experiment [11] and in experiment [12] was > 100 µM (inactive) throughout. Further, the GI50 in experiment [13], in [14], in experiment [15], in experiment [16], in [17] and in [18] was > 100 µM (inactive) throughout. For the same compound, the GI50 in [19] is > 100 µM (inactive).

`Oc1cc(O)cc(-c2nc3cc(F)ccc3s2)c1`: the GI50 is 19.7 µM in experiment [2]; 21.4 µM (inactive) in experiment [3]; 27.7 µM (inactive) in [4]; 31.6 µM (inactive) in experiment [6]; 25.8 µM (inactive) in experiment [7]; 22.8 µM (inactive) in experiment [8]. Besides, the GI50 in experiment [9] was 36.8 µM (inactive); in [10], 18.5 µM (inactive); in [11] it was 18.5 µM (inactive); in experiment [12], 17.8 µM (inactive); in experiment [13], 29 µM (inactive); in experiment [14], 22.7 µM (inactive). The GI50 was 17.5 µM (inactive) in experiment [15]; 25.8 µM (inactive) in [16]; 23.7 µM (inactive) in experiment [17]; 22.8 µM (inactive) in [18]; 16.4 µM (inactive) in experiment [19].

For `Nc1ccn(C2OC(COP(=O)(O)O)C(O)C2O)c(=O)n1` (stereo unspecified), the GI50 is > 100 µM (inactive) in experiment [1]; 45.5 µM in [2]; 17.8 µM (inactive) in experiment [20]; 11.4 µM (inactive) in [3]; 40.7 µM (inactive) in [4]; 24 µM (inactive) in experiment [5]. The GI50 in [7] was 3.18 µM (inactive); in experiment [8], 0.32 µM (active); in experiment [9] it was 6.38 µM (inactive); in experiment [10], > 100 µM (inactive); in [11], > 100 µM (inactive); in experiment [12], 33 µM (inactive). For the same compound, the GI50 was 8.05 µM (inactive) in experiment [13]; > 100 µM (inactive) in [14]; 16.6 µM (inactive) in experiment [15]; 42.1 µM (inactive) in experiment [16]; 23.8 µM (inactive) in experiment [17]; 14.3 µM (inactive) in experiment [18]. Further, in experiment [19], the GI50 was > 63.4 µM (inactive).
